In ChEMBL document CHEMBL2407085, “Structure-Activity Relationships and in Vivo Evaluation of Quinoxaline Derivatives for PET Imaging of β-Amyloid Plaques” (ACS Med Chem Lett, 2013):
The source made the active and inactive calls. No cut-off for these calls is given here.

How the values were obtained:
Brain [1] = assay: Biodistribution in Tg2576 ddY mouse brain at 23.4 to 48.2 kBq, iv measured at 2 to 10 mins by autoradiography; type: ADME, organism-based; conditions: in vivo
[2] = Drug uptake in Alzheimer's disease patient white matter at 370 kBq/100 uL after 1 hr by thioflavin-S based autoradiography; type: ADME, tissue-based; conditions: human, in vitro
Brain [3] = assay: Ratio of drug uptake in ddY mouse brain at 23.4 to 48.2 kBq, iv measured at 2 mins to drug uptake in ddY mouse brain at 23.4 to 48.2 kBq, iv measured at 60 mins; conditions: in vivo
[4] = target: T1, Amyloid-beta precursor protein (Homo sapiens, UniProt P05067); assay: Binding affinity to beta-amyloid plaque in Alzheimer's disease patient brain cortex after 1 hr by thioflavin-S based autoradiography
T1 sequence (P05067 whole entry): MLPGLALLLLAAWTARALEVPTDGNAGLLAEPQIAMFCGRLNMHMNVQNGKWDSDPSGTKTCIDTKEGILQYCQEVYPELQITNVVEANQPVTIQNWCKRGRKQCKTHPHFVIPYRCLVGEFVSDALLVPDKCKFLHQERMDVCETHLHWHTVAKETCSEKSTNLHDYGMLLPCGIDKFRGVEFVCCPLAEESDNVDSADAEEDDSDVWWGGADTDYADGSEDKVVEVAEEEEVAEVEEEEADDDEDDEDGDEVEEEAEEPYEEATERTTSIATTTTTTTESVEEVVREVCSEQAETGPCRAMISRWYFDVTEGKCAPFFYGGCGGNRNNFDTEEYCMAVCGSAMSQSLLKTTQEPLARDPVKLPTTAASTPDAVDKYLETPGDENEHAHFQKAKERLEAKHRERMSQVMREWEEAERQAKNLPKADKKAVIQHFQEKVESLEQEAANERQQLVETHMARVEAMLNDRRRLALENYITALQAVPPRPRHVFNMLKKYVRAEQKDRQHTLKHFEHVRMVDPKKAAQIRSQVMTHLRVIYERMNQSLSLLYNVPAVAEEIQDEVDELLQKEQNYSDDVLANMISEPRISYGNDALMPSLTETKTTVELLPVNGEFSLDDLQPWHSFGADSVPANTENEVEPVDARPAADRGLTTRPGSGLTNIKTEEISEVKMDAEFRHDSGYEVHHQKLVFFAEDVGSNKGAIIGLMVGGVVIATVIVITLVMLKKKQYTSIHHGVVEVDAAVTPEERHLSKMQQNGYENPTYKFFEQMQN

Brain [5] = assay: Biodistribution in Tg2576 ddY mouse brain at 23.4 to 48.2 kBq, iv measured at 60 mins by autoradiography; type: ADME, organism-based; conditions: in vivo, 1 h
[6] = target: T1, Amyloid-beta precursor protein; assay: Displacement of [125I]IMPY from amyloid beta (1 to 42) (unknown origin) after 3 hrs by gamma counting
Mus musculus [7] = assay: Biodistribution in Tg2576 ddY mouse corpus callosum at 5.5 MBq, iv by autoradiography; type: ADME, organism-based; conditions: in vivo
Mus musculus [8] = assay: Biodistribution in Tg2576 ddY mouse external capsule at 5.5 MBq, iv by autoradiography; type: ADME, organism-based; conditions: in vivo
Mus musculus [9] = assay: Biodistribution in Tg2576 ddY mouse olfactory tract at 5.5 MBq, iv by autoradiography; type: ADME, organism-based; conditions: in vivo
Mus musculus [10] = assay: Biodistribution in Tg2576 ddY mouse anterior commissure at 5.5 MBq, iv by autoradiography; type: ADME, organism-based; conditions: in vivo
[11] = target: T1, Amyloid-beta precursor protein; assay: Ratio of AV-45 Ki to compound Ki for amyloid beta (1 to 42) (unknown origin) […] by gamma counting
Mus musculus [12] = assay: Ex vivo binding affinity to beta-amyloid plaque in wild-type mouse brain at 5.5 MBq, iv measured at 1 hr by Thioflavin-S fluorescence microscopy; type: functional, organism-based; conditions: 5.5 M, tested as the 18F-labelled form
Mus musculus [13] = assay: Ex vivo binding affinity to beta-amyloid plaque in Tg2576 mouse brain at 5.5 MBq, iv measured at 1 hr by Thioflavin-S fluorescence microscopy; type: functional, organism-based; conditions: 5.5 M, tested as the 18F-labelled form

Structure (SMILES) | Drug uptake (Brain [1]) | Drug uptake [2] | Ratio (Brain [3]) | Ki [4] | Drug uptake (Brain [5]) | other results
Nc1ccc(-c2cnc3cc(OCC[18F])ccc3n2)cc1 | 4.69 % ID/g | Active | 2.36 | > 242 nM | 1.48 % ID/g | 
Nc1ccc(-c2cnc3ccc(OCC[18F])cc3n2)cc1 | 4.69 % ID/g | Active | 2.36 | > 242 nM | 1.48 % ID/g | 
CNc1ccc(/C=C/c2ccc(OCCOCCOCCF)nc2)cc1 [FLORBETAPIR] |  |  |  |  |  | Ki [6]: 12.8 nM
CN(C)c1ccc(-c2cnc3cc(OCC[18F])ccc3n2)cc1 | 4.69 % ID/g | Not Active | 2.36 | 0.895 nM | 1.48 % ID/g | Drug uptake (Mus musculus [7]): Active; Drug uptake (Mus musculus [8]): Active; Drug uptake (Mus musculus [9]): Active; Drug uptake (Mus musculus [10]): Active
CNc1ccc(/C=C/c2ccc(OCCOCCOCC[18F])nc2)cc1 [FLORBETAPIR F 18] | Active |  | 3.8 |  |  | 
CNc1ccc(-c2cnc3ccc(OCC[18F])cc3n2)cc1 | 4.69 % ID/g | Active | 2.36 | > 242 nM | 1.48 % ID/g | 
CN(C)c1ccc(-c2cnc3cc(OCCF)ccc3n2)cc1 |  |  |  |  |  | Ratio Ki [11]: 10; Activity (Mus musculus [12]): Active; Ki [6]: 0.895 nM; Activity (Mus musculus [13]): Active
CN(C)c1ccc(-c2cnc3ccc(OCC[18F])cc3n2)cc1 | 4.69 % ID/g |  | 3.91 | 111 nM | 1.48 % ID/g | 
CNc1ccc(-c2cnc3cc(OCC[18F])ccc3n2)cc1 | 4.69 % ID/g | Not Active | 2.36 | 15.7 nM | 1.48 % ID/g | 
